Tests used:
[1] = test system: human embryonic stem cell-derived hepatocytes (hES-Hep); conditions: hES-Hep treated with alcohol (200 mM ethanol, 24 hours), without co-culture, FIG. 6
Procedure: 2×10^5 mouse hepatic stellate cells were cultured on the plate (Corning, USA) with 8 μm holes coated with human embryonic stem cell-derived hepatocytes cultured in DMEM supplemented with 10% FBS. The cell ratio of mouse hepatic stellate cells to human embryonic stem cell-derived hepatocytes was maintained as 1:2. […] 48 hours later, the cells and the medium were collected (FIG. 4).
Human embryonic stem cell-derived hepatocytes were co-cultured with mouse hepatic stellate cells. Then, TUNEL assay was performed to investigate apoptosis therein.
Apoptosis was investigated by using In Situ Cell Death Detection Kit (Fluorescence, Roche). Nucleus of the cell was stained with DAPI, followed by visualization using Leica DMI 4000B automatic vertical microscope system (Germany) equipped with Leica EL6000 and Leica CTR 4000 CCD camera. Computer assisted images were analyzed with Leica Application Suite Advanced Fluorescence (LAS AF, Leica).

[2] = test system: human embryonic stem cell-derived hepatocytes (hES-Hep); conditions: hES-Hep treated with alcohol, real-time PCR, FIG. 3
Procedure: Particularly, total RNA was extracted from the adult Hep, Fetal-Hep, and human embryonic stem cell-derived hepatocytes by using Trizol reagent (Invitrogen), followed by cDNA synthesis by using amfi-rivert II cDNA synthesis Master Mix (Gendepot) according to the manufacturer's protocol. Genes in interest were amplified from the transcript by using the primers listed in the Table 1 below by using SYBR green real-time PCR master mix (Toyobo, Japan). The real-time PCR was performed by using Bio-rad CFX96 real-time PCR detection system (Bio-rad). The gene expression level was calculated by ΔΔCt method and by using β-actin as a denominator of the gene expression. Compared with the control gene expression, the obtained value was presented as fold change.

[3] = test system: human embryonic stem cell-derived hepatocytes (hES-Hep); test: Gene expression (real time PCR) after the treatment of retinoic acid and ethanol; assay type: cell-based; conditions: 1 ump all-trans retinoic acid and 0.2 M EtOH, culture 24 hours, FIG. 17
Procedure: Human embryonic stem cell-derived hepatocytes were treated with retinoic acid and ethanol, followed by investigation of the gene expressions of alcohol metabolism associated enzymes, drug metabolism associated enzymes, and anti-oxidant enzymes.
(§1) Particularly, the human embryonic stem cell-derived hepatocytes differentiated by the same manner as described in Example 1 were treated with 1 ump all-trans retinoic acid and 0.2 M EtOH, followed by culture for 24 hours. Then, real time PCR was performed by the same manner as described in Experimental Example <1-3> in order to examine the expressions of alcohol metabolism associated enzymes (AHD1a, ADH1b, ADH1c, and CYP2E1) and anti-oxidant enzymes (catalase and Mn-SOD).

[4] = test system: human embryonic stem cell-derived hepatocytes (hES-Hep); test: Immunocytochemistry (immunofluorescence) of CYP2E1 after the treatment of retinoic acid; assay type: cell-based; conditions: 1 ump all-trans retinoic acid and 0.2 M EtOH, culture 24 hours, anti-CYP2E1 antibody, FIG. 18
Procedure: Human embryonic stem cell-derived hepatocytes were treated with retinoic acid, followed by immunofluorescence in order to examine the expression of CYP2E1, the alcohol metabolism associated enzyme.
Particularly, the human embryonic stem cell-derived hepatocytes differentiated by the same manner as described in Example 1 were treated with 1 ump all-trans retinoic acid and 0.2 M EtOH, followed by culture for 24 hours. The cells were fixed with 4% paraformaldehyde. […] Blocking was performed by treating the cells with 5% goat serum at 37° C. for 1 hour. The cells were stained with anti-CYP2E1 antibody (Millipore, Germany).

[5] = test system: human embryonic stem cell-derived hepatocytes (hES-Hep); test: Gene expression (real time PCR) after the treatment of retinoic acid; assay type: cell-based; conditions: 1 ump all-trans retinoic acid or 9-cis-retinoic acid, culture 12~24 hours, FIG. 16
Procedure: Human embryonic stem cell-derived hepatocytes were treated with retinoic acid, followed by investigation of the gene expressions of alcohol metabolism associated enzymes, drug metabolism associated enzymes, and anti-oxidant enzymes.
as §1, with “or 9-cis-retinoic acid,” for “and 0.2 M EtOH,”, “12˜24” for “24”, “<1˜3>” for “<1-3>”, “CYP2E1), drug metabolism associated enzymes (CYP2C9, CYP2D6, and CYP3A4),” for “CYP2E1)”

| expressions of alcohol metabolism associated enzymes (AHD1a, ADH1b, ADH1c, CYP2E1) and anti-oxidant enzymes (catalase, Mn-SOD) [3] | expression of CYP2E1 (immunofluorescence) [4] | expressions of alcohol metabolism associated enzymes (AHD1a, ADH1b, ADH1c, CYP2E1), drug metabolism associated enzymes (CYP2C9, CYP2D6, CYP3A4) and anti-oxidant enzymes (catalase, Mn-SOD) [5] | Compound | apoptosis (TUNEL) [1] | expression of alcohol metabolism associated enzymes [2] |
| --- | --- | --- | --- | --- | --- |
|  |  |  | CCO [alcohol, ethanol] | increased | up-regulated |
| all increased | significantly increased | all increased | CC1=C(/C=C/C(C)=C/C=C/C(C)=C/C(=O)O)C(C)(C)CCC1 [retinoic acid] |  |  |

From patent publication US20180163179A1, “METHOD FOR IMPROVEMENT OF DRUG METABOLISM OF HUMAN STEM CELL-DERIVED HEPATOCYTES” (KOREA ADVANCED INSTITUTE OF SCIENCE AND TECHNOLOGY, priority 2015, published 2018)
